# Measured values reported in patent publication US20080241260A1, “Compositions for Enhanced Absorption of Biologically Active Agents” (priority 2005, published 2008).
# System: streptozotocin-induced diabetic rats
# Assay: Effect of formulations on serum glucose level in diabetic rat model
# Assay type: in vivo, male albino Wistar rats
# Conditions: S.C., 1 u/kg
substance,measurement,setting,value
"Insulin solution: Insulin solution, pH 3, given subcutaneously at 1 u/kg as reference",% Decrease in serum glucose level After 1 hr,1 hr,76.62 ± 1.08%
same,% Decrease in serum glucose level After 2 hr,2 hr,83.26 ± 2.56%
same,% Decrease in serum glucose level After 3 hr,3 hr,66.75 ± 5.39%
same,% Decrease in serum glucose level After 5 hr,5 hr,38.26 ± 3.60%
